# From patent publication US20090074785A1, “Compositions and methods for treatment of colorectal cancer” (priority 2007, published 2009)
# Assays:
# IBABP-L = assay: Regulation of expression of IBABP-L in Caco-2 cells, quantitative RT-PCR; type: cell-based, human; settings: 24 h
# Protocol: (§1) The expression of IBABP-L and IBABP was measured by quantitative RT-PCR. The mRNA copy number of each variant is normalized to the expression the housekeeping gene ARPP0. Values in the figure represent the average of three experiments with each replicate performed in duplicate.
# (§2) To determine the relative expression levels of IBABP-L and IBABP, a two-step quantitative RT-PCR procedure was used. In the first step, complementary DNA (cDNA) was synthesized from total RNA. […] In the second step, quantitative PCR (QPCR) was carried out on a Mx 3000P Real-Time PCR System (Stratagene, La Jolla, Calif.) using a solution containing diluted cDNA (1:20; 2.0 μl), 1×SYBR Green PCR Master Mix (Applied Biosystems, Foster City, Calif.), and primers for IBABP-L, IBABP, or ARPP0 (0.25 μM). […]
# (§3) Regulation of expression of the IBABP variants in Caco-2 cells. […] Cells were harvested, cellular RNA was isolated using the RNeasy Mini Kit (Qiagen) according to manufacturer instruction, and expression of IBABP variants was determined by QPCR as described above.
# (§4) Bile acids differentially regulate the variants of IBABP. […] Caco-2 cells were treated with either chenodeoxycholic acid (CDCA), deoxycholic acid (DCA), or 9cRA, and the relative expression of transcripts encoding IBABP-L and IBABP was measured by quantitative RT-PCR (FIG. 10).
# IBABP = assay: Regulation of expression of IBABP in Caco-2 cells, quantitative RT-PCR; type: cell-based, human; settings: 100 nM, 24 h
# Protocol: as §1, §2, §3, §4
# BAR (FXR, NR1H4) = target: T1, BAR (FXR, NR1H4) (Homo sapiens, UniProt Q96RI1); settings: gene-selective BAR modulator; cited from earlier work
# T1 sequence (Q96RI1 1-486): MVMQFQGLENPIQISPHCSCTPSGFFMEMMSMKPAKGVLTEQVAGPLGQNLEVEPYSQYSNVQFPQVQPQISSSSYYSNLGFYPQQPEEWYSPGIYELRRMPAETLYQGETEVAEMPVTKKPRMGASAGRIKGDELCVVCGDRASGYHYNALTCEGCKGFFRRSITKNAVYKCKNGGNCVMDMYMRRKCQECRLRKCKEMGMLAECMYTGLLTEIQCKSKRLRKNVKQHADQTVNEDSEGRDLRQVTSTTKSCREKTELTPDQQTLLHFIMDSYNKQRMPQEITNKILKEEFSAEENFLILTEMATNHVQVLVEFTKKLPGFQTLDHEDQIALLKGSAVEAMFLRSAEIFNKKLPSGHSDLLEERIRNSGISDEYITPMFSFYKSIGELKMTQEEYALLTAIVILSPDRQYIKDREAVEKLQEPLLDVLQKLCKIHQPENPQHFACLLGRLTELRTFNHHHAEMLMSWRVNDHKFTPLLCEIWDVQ
# IBABP-L promoter = IBABP-L promoter luciferase reporter in HCT 116 cells; type: cell-based, human; settings: 25 ng/ml for 5 hr, HCT116 cells
# Protocol: To verify that NF-κB binds the response element and drives the expression of IBABP-L, a number of studies were performed with deletions and mutations of the promoter linked to a reporter gene (PGL3-Basic Luciferase), as shown in FIG. 18. These studies were performed in HCT 116 colon cancer cells, which have elevated expression of IBABP-L. The region containing the putative NF-κB binding motif (−1563/+78) was amplified from human genomic DNA by PCR. Deletion constructs of this promoter were made through PCR or restriction enzyme digestion. The G C mutation was made through site-directed mutagenesis. The wild type and modified promoters were inserted into PGL3 vector containing firefly Luciferase (Luc) reporter (Promega). Reporter vectors were constructed to either delete the entire putative NF-κB binding motif, or mutate the most conserved “G” to “C” within this motif. The wild type promoter and modified reporters were introduced into HCT 116 cells, and luciferase activity was analyzed at 24 hr.
# As shown in FIGS. 19A-C, a functional analysis of the IBABP-L promoter was performed. […] The luciferase activity was measured in 24 h and normalized to the Renilla signal in the absence of the IBABP-L promoter. […] Luciferase activity was measured in 24 hr and normalized. pRL-CMV was included in every transfection. […]
compound,measurement,setting,value
"CC1=C(/C=C/C(C)=C\C=C\C(C)=C\C(=O)O)C(C)(C)CCC1 [9cRA, 9-cis-retinoic acid]",effect on expression of IBABP-L,IBABP-L; 100 nM,without effect
same,effect on expression of IBABP,IBABP,up-regulated
CCCCCCOc1c(\C(C)=C/C=C/C(C)=C/C(=O)O)cc(C(C)C)cc1C(C)C [AGN34],activity on CYP7A1,"BAR (FXR, NR1H4)",agonist
same,activity on IBABP,"BAR (FXR, NR1H4)",antagonist
same,activity on SHP,"BAR (FXR, NR1H4)",neutral
"C[C@H](CCC(=O)O)[C@H]1CC[C@H]2[C@@H]3[C@H](O)C[C@@H]4C[C@H](O)CC[C@]4(C)[C@H]3CC[C@]12C [CDCA, chenodeoxycholic acid]",effect on expression of IBABP-L,"IBABP-L; 100 μM, normalized to ARPP0",without effect
tumor necrosis factor α [TNFα],transcription activity of the wild type IBABP-L promoter,IBABP-L promoter,increased
same,transcription activity of the mutated IBABP-L promoter,IBABP-L promoter; G to C mutation in NF-κB motif,not the mutated promoter
